Assay results: US20250215028A1, “SYNTHETIC GLYCEROPHOSPHOLIPIDS COMPRISING AT LEAST ONE REACTIVE FUNCTION, PROCESS FOR PREPARING SAME AND USES THEREOF IN DIFFERENT APPLICATIONS” (UNIVERSITE DE ROUEN-NORMANDIE, priority 2022, published 2025)

Experiments:
Spo20p-GFP = target: T1, Spo20p-GFP (Saccharomyces cerevisiae, UniProt Q04359); assay: Recruitment of Spo20p-GFP to the plasma membrane of PC12 cells after incubation with GPL (confocal microscopy); type: cell-based; conditions: GPL 100 μM, 5 min incubation, PC12 cells expressing Spo20p-GFP, FIG. 1
T1 construct: expressed in transfected cells; host or cells: PC12 cells
T1 sequence (Q04359 51-91 limits assumed): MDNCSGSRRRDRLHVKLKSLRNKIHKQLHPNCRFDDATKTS
Method: This example illustrates the interaction between GPL (Ia) or (Ib) and a phosphatidic acid (PA) mobilizing protein, the green-fluorescent protein Spo20p-GFP, expressed in target cells.
For this purpose, GPL (Ia) and, for comparative purposes, a natural GPL PA 18:1-18:0 (referred to hereinbelow as GPL C1) sold under reference 840861C by Avanti Polar Lipids, are incubated for 5 min at a concentration of 100 μM, with PC12 cells expressing Spo20p-GFP.
Similarly, GPL (Ib) and, for comparative purposes, a natural GPL PA 18:2-18:0 (referred to hereinbelow as GPL C2) sold under reference 840862C by Avanti Polar Lipids, are incubated for 5 min at a concentration of 100 μM, with PC12 cells expressing Spo20p-GFP.
The GPL-free cell medium is used as a control (referred to hereinbelow as […]).
A marker referred to hereinbelow as Membright (obtained from Mayeul Collot UMR-7021, Strasbourg) is incubated for 5 minutes on cells in media as prepared above to specifically mark the cells' plasma membrane.

[1] = Formation of giant liposomes (96% DOPC / 4% GPL) by PVA-assisted swelling, light and confocal microscopy; type: physicochemical; conditions: liposomes 96% by mass DOPC and 4% by mass GPL, 1 mM, FIG. 3 and 4
Method: (§1) For this purpose, giant liposomes composed of 96% by mass of dioleoylphosphatidylcholine (DOPC) and 4% by mass of GPL (XIVa), and, for comparative purposes, giant liposomes composed of 96% by mass of dioleoylphosphatidylcholine (DOPC) and 4% by mass of a natural GPL modified with a nitrobenzadiazole-based fluorophore: PA 18:1-6:0 NBD sold under the reference 810175C by Avanti Polar Lipids, at a concentration of 1 mM, are prepared using the polyvinyl alcohol (PVA)-assisted swelling method as described in Carmon et al., FASEB J., 2020, 34:6769-6790).

CgA-AF633 = target: T2, CgA-AF633 (Homo sapiens, UniProt P10645); assay: Interaction of CgA-AF633 protein with giant liposomes containing GPL (confocal microscopy); type: binding; conditions: CgA-AF633 4 μM, liposomes 96% DOPC / 4% GPL, FIG. 5
T2 sequence (P10645 19-457): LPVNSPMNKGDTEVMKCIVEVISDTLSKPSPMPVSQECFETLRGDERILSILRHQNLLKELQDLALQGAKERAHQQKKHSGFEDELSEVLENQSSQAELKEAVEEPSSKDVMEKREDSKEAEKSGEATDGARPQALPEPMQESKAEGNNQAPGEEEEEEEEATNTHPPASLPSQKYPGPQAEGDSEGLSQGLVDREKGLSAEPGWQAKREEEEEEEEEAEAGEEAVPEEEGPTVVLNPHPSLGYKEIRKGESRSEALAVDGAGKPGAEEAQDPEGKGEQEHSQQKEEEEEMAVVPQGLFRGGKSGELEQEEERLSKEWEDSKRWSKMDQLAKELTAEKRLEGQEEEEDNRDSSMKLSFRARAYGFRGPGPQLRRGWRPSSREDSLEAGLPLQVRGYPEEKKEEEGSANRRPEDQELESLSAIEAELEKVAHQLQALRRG
Description: This example illustrates the interaction between GPL (XIVa), which fluoresces green (by means of a nitrobenzadiazole-based fluorophore), and a red-fluorescent phosphatidic acid (PA) mobilizing protein, CgA-AF633.
as §1
CgA, rendered red-fluorescent due to its coupling with the fluorophore Alexa 633 or AF633 (CgA-AF633), is incubated at 4 μM concentration with liposomes as prepared above. […]

Row | Compound | recruitment of the Spo20p-GFP protein to the plasma membrane (Spo20p-GFP) | participation in the formation of giant liposomes [1] | interaction of the CgA-AF633 protein with liposomes containing the GPL (CgA-AF633) | membrane deformations in the liposomes on incubation with CgA-AF633 (CgA-AF633)
1 | CCCCCCCC/C=C\CCCCCCCC(=O)O[C@@H](COP(=O)(O)O)[C@H](CN=[N+]=[N-])OC(=O)CCCCCCCCCCCCCCCCC [GPL (Ia), (2S,3S)-4-azido-2-(oleoyloxy)-3-(stearoyloxy)butyl hydrogen phosphate] | bring about recruitment of the Spo20p-GFP protein to the plasma membrane of PC12 cells in the same manner as do the corresponding natural GPLs |  |  | 
2 | CCCCCCCC/C=C\CCCCCCCC(=O)O[C@@H](COP(=O)(O)O)[C@H](Cn1nnc2c1-c1ccccc1CN(C(=O)CCCCCNc1ccc([N+](=O)[O-])c3nonc13)c1ccccc1-2)OC(=O)CCCCCCCCCCCCCCCCC [GPL (XIVa), (2S,3S)-4-(8-(6-((7-nitrobenzo[c][1,2,5]oxadiazol-4-yl)amino)hexanoyl)-8,9-dihydro-1H-dibenzo[b,f][1,2,3]triazolo[4,5-d]azocin-1-yl)-1-(phosphonooxy)-3-(stearoyloxy)butan-2-yl oleate] |  | participates in the formation of giant liposomes | only interacts with liposomes containing GPL (XIVa) | does result in membrane deformations
